Experimental data taken from ChEMBL document CHEMBL4507270 (2021).

Key:
[1] = molecular target: Calcium-dependent protein kinase 1 (Plasmodium falciparum) (UniProt P62344)
[2] = tested on: Epidermal growth factor receptor (Homo sapiens), P00533 [L861Q]
[3] = tested on: Epidermal growth factor receptor (Homo sapiens), P00533 [UNDEFINED MUTATION]
[4] = molecular target: Serine/threonine-protein kinase VRK2 (Homo sapiens) (UniProt Q86Y07)
[5] = molecular target: Interleukin-1 receptor-associated kinase 3 (Homo sapiens) (UniProt Q9Y616)
[6] = molecular target: Muscarinic acetylcholine receptor M2 (Homo sapiens) (UniProt P08172); conditions: Compound concentration 10.0 uM
[7] = molecular target: Serine/threonine-protein kinase RIO2 (Homo sapiens) (UniProt Q9BVS4)
[8] = molecular target: Homeodomain-interacting protein kinase 2 (Homo sapiens) (UniProt Q9H2X6)
[9] = molecular target: MAP/microtubule affinity-regulating kinase 3 (Homo sapiens) (UniProt P27448)
[10] = molecular target: Tyrosine-protein kinase Lyn (Homo sapiens) (UniProt P07948)
[11] = molecular target: Muscarinic acetylcholine receptor M4 (Homo sapiens) (UniProt P08173); conditions: Compound concentration 10.0 uM
[12] = molecular target: Tyrosine-protein kinase Yes (Homo sapiens) (UniProt P07947)
[13] = molecular target: Mitogen-activated protein kinase kinase kinase 10 (Homo sapiens) (UniProt Q02779)
[14] = tested on: Tyrosine-protein kinase ABL1 (Homo sapiens), P00519 [F317I]
[15] = molecular target: Cyclin-dependent kinase-like 3 (Homo sapiens) (UniProt Q8IVW4)
[16] = molecular target: Dual specificity mitogen-activated protein kinase kinase 2 (Homo sapiens) (UniProt P36507)
[17] = molecular target: Mu-type opioid receptor (Homo sapiens, UniProt P35372); conditions: Compound concentration 10.0 uM
[18] = molecular target: Receptor tyrosine-protein kinase erbB-2 (Homo sapiens) (UniProt P04626)
[19] = tested on: Epidermal growth factor receptor (Homo sapiens), P00533 [G719S]
[20] = molecular target: Testis-specific serine/threonine-protein kinase 1 (Homo sapiens) (UniProt Q9BXA7)
[21] = molecular target: Casein kinase I isoform delta (Homo sapiens) (UniProt P48730)
[22] = molecular target: Serine/threonine-protein kinase 17A (Homo sapiens) (UniProt Q9UEE5)
[23] = molecular target: Inhibitor of nuclear factor kappa-B kinase subunit epsilon (Homo sapiens) (UniProt Q14164)
[24] = molecular target: Mitogen-activated protein kinase kinase kinase 12 (Homo sapiens) (UniProt Q12852)
[25] = molecular target: MAP kinase-activated protein kinase 2 (Homo sapiens) (UniProt P49137)
[26] = molecular target: BMP-2-inducible protein kinase (Homo sapiens) (UniProt Q9NSY1)
[27] = molecular target: Bone morphogenetic protein receptor type-1A (Homo sapiens) (UniProt P36894)
[28] = molecular target: Casein kinase I isoform alpha-like (Homo sapiens) (UniProt Q8N752)
[29] = molecular target: NT-3 growth factor receptor (Homo sapiens) (UniProt Q16288)
[30] = molecular target: Serine/threonine-protein kinase PLK4 (Homo sapiens) (UniProt O00444)
[31] = tested on: Receptor-type tyrosine-protein kinase FLT3 (Homo sapiens), P36888 [UNDEFINED MUTATION]
[32] = tested on: Tyrosine-protein kinase ABL1 (Homo sapiens), P00519 [Q252H]
[33] = molecular target: Mitogen-activated protein kinase kinase kinase 14 (Homo sapiens) (UniProt Q99558)
[34] = molecular target: cGMP-dependent protein kinase 2 (Homo sapiens) (UniProt Q13237)
[35] = molecular target: Serine/threonine-protein kinase DCLK2 (Homo sapiens) (UniProt Q8N568)
[36] = molecular target: Histamine H2 receptor (Homo sapiens) (UniProt P25021); conditions: Compound concentration 10.0 uM
[37] = molecular target: Dual specificity testis-specific protein kinase 1 (Homo sapiens) (UniProt Q15569)
[38] = molecular target: Phosphatidylinositol 4-phosphate 5-kinase type-1 alpha (Homo sapiens) (UniProt Q99755)
[39] = molecular target: Tyrosine-protein kinase ITK/TSK (Homo sapiens) (UniProt Q08881)
[40] = molecular target: Muscle, skeletal receptor tyrosine-protein kinase (Homo sapiens) (UniProt O15146)
[41] = molecular target: RAC-beta serine/threonine-protein kinase (Homo sapiens) (UniProt P31751)
[42] = molecular target: Serine/threonine-protein kinase 32B (Homo sapiens) (UniProt Q9NY57)
[43] = molecular target: Ribosomal protein S6 kinase alpha-6 (Homo sapiens) (UniProt Q9UK32)
[44] = molecular target: Myosin-IIIb (Homo sapiens) (UniProt Q8WXR4)
[45] = molecular target: Activated CDC42 kinase 1 (Homo sapiens) (UniProt Q07912)
[46] = Compound concentration 100.0 nM
[47] = Compound concentration 1000.0 nM

Dual specificity mitogen-activated protein kinase kinase 2 (Homo sapiens), sequence (P36507 whole entry): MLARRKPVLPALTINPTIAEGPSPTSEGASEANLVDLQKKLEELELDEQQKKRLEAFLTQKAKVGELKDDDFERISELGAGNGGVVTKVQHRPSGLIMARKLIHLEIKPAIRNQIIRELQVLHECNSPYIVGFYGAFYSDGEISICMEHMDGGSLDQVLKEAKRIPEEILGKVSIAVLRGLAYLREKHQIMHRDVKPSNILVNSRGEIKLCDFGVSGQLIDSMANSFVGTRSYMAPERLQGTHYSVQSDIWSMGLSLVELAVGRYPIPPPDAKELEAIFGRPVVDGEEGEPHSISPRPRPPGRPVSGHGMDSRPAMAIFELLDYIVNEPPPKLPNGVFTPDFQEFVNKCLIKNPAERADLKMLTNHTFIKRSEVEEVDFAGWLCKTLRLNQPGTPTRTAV
Bone morphogenetic protein receptor type-1A (Homo sapiens), sequence (P36894 whole entry, canonical isoform): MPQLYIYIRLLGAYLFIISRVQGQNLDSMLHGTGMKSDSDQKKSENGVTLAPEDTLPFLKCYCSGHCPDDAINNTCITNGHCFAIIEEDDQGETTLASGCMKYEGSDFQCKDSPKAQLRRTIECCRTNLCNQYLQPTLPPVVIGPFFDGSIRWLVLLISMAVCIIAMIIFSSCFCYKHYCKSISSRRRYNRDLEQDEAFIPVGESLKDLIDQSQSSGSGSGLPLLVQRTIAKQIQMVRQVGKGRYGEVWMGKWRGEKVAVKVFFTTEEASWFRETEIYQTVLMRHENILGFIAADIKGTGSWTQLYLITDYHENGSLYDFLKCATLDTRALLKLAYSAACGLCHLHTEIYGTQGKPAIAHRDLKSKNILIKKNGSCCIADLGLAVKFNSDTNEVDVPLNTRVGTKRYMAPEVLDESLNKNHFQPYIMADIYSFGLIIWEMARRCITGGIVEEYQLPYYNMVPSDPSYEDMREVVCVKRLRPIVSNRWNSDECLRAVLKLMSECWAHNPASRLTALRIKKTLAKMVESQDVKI
Receptor tyrosine-protein kinase erbB-2 (Homo sapiens), sequence (P04626 whole entry): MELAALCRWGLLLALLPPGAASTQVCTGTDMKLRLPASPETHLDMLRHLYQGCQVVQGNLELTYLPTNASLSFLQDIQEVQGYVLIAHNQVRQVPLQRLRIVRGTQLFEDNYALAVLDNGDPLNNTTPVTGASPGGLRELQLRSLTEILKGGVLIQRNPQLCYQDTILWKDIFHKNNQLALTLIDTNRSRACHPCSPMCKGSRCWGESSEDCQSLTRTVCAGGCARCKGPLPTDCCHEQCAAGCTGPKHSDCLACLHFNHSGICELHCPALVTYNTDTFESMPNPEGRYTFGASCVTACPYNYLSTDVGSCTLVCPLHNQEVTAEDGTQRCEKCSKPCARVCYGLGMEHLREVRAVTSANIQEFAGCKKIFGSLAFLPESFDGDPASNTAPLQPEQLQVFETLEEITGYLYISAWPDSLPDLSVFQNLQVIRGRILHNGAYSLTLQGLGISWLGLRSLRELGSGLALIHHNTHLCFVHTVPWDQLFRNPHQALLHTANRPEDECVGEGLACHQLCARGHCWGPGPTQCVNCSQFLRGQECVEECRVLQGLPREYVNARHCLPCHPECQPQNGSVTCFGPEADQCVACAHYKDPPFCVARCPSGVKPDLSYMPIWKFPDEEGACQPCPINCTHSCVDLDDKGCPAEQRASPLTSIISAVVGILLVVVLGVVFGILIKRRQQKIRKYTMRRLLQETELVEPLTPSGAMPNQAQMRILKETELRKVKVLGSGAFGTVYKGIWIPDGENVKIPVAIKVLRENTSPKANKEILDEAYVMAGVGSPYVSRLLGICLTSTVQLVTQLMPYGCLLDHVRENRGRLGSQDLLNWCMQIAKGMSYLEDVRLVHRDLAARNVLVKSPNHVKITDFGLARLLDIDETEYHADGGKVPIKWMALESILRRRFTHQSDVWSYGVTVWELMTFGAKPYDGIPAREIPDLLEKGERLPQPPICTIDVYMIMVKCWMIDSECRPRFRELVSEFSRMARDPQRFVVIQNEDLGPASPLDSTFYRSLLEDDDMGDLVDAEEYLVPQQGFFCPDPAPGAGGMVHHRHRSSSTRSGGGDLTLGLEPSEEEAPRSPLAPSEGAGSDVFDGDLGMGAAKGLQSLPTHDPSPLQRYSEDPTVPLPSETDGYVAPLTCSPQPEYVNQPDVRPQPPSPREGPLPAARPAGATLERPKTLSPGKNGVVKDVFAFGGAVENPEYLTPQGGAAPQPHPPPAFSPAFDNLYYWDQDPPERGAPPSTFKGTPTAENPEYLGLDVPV
Casein kinase I isoform delta (Homo sapiens), sequence (P48730 whole entry, looked up, canonical isoform): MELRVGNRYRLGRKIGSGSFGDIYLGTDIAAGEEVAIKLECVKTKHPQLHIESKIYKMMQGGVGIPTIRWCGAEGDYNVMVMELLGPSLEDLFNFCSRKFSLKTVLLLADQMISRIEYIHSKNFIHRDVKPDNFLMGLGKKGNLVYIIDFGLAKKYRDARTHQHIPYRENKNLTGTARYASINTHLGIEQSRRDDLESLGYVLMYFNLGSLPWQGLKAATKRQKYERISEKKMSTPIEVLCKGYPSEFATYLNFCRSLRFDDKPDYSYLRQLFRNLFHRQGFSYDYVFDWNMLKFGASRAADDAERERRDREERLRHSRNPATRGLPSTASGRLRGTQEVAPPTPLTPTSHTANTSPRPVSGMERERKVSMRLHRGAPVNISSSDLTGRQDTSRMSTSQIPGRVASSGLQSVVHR
Receptor-type tyrosine-protein kinase FLT3 (Homo sapiens), P36888 [UNDEFINED MUTATION], sequence (P36888 whole entry, looked up, stated change not applied): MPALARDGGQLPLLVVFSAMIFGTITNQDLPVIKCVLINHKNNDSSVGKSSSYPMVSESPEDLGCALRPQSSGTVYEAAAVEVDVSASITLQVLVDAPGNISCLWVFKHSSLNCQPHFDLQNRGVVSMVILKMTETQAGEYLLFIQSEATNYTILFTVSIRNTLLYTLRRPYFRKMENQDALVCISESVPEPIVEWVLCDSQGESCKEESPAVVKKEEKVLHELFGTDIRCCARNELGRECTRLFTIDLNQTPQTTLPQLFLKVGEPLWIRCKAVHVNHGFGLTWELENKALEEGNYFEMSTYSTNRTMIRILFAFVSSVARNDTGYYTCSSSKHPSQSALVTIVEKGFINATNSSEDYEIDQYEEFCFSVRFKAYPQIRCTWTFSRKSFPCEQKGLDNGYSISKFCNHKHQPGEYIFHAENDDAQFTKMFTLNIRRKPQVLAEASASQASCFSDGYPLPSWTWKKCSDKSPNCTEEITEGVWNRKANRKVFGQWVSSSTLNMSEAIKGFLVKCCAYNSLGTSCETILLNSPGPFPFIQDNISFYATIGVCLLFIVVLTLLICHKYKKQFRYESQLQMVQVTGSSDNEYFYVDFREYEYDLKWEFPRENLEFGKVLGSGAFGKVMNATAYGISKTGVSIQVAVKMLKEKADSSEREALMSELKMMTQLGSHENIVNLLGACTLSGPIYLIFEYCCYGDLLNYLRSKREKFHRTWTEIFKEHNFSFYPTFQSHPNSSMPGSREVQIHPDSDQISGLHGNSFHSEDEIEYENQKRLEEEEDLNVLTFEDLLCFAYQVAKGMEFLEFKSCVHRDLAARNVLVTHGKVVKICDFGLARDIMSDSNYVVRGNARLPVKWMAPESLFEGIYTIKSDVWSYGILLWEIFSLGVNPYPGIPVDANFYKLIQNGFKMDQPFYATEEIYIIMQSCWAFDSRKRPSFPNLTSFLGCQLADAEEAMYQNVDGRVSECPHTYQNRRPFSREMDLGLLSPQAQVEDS
Serine/threonine-protein kinase DCLK2 (Homo sapiens), sequence (Q8N568 whole entry): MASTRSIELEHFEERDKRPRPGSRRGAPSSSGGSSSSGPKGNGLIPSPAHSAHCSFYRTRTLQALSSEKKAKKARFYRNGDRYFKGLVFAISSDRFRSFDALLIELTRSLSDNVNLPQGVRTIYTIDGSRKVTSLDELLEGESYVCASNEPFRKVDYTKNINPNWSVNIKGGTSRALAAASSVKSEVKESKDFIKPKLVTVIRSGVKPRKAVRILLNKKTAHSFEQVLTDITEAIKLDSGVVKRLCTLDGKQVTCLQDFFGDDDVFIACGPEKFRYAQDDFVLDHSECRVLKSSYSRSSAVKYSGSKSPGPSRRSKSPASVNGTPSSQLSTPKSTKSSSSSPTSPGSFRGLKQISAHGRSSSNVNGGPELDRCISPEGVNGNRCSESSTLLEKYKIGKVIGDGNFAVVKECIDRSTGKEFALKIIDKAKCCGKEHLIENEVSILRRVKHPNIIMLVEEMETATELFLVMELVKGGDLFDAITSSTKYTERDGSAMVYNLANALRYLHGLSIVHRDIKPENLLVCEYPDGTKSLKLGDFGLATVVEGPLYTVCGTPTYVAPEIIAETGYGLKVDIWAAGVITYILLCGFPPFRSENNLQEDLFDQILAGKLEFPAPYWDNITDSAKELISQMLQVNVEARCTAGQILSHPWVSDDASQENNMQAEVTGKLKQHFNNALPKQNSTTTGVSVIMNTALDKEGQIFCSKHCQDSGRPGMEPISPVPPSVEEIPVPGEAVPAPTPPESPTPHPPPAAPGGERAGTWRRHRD
Serine/threonine-protein kinase 17A (Homo sapiens), sequence (Q9UEE5 whole entry): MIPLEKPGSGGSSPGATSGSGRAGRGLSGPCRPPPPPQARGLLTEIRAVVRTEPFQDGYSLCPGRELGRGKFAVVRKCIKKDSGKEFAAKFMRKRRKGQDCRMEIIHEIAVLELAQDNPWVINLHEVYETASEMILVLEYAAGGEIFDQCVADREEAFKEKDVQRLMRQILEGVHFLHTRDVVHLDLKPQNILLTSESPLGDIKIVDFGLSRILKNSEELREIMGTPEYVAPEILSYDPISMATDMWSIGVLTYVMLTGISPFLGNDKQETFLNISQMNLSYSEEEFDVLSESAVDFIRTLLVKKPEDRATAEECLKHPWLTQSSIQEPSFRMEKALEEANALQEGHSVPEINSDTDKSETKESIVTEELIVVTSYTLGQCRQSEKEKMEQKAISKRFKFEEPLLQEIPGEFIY

Question: Which residual activity [1, 46] does the source give for `Cc1cc(C)c(-n2ccn3nc(-c4cccnc4)cc23)cc1NC(=O)c1cc(C#N)cc(S(F)(F)(F)(F)F)c1` [BAY-826] here?
Answer: 88.9%

Question: What about the residual activity [2, 46] of the same compound?
Answer: 91.1%

Question: What about the residual activity [3, 46] of the same compound?
Answer: 91.6%

Question: And the residual activity [4, 46]?
Answer: 79.8%

Question: And the residual activity [5, 46]?
Answer: 75.2%

Question: And the inhibition [6]?
Answer: 10.5%

Question: What about the residual activity [7, 46] of the same compound?
Answer: 74.2%

Question: And the residual activity [8, 46]?
Answer: 86.2%

Question: What about the residual activity [9, 46] of the same compound?
Answer: 85.1%

Question: And the residual activity [10, 46]?
Answer: 46%

Question: What about the inhibition [11] of the same compound?
Answer: 14.9%

Question: What about the residual activity [12, 46] of the same compound?
Answer: 70.7%

Question: And the residual activity [13, 46]?
Answer: 100%

Question: What about the residual activity [14, 46] of the same compound?
Answer: 76.4%

Question: What about the residual activity [15, 46] of the same compound?
Answer: 81.2%

Question: And the residual activity [16, 46]?
Answer: 74.4%

Question: What about the inhibition [17] of the same compound?
Answer: 20.7%

Question: What about the residual activity [18, 46] of the same compound?
Answer: 84.2%

Question: And the residual activity [19, 46]?
Answer: 94.8%

Question: And the residual activity [20, 46]?
Answer: 100%

Question: What about the residual activity [21, 46] of the same compound?
Answer: 100%

Question: And the residual activity [22, 46]?
Answer: 100%

Question: What about the residual activity [23, 46] of the same compound?
Answer: 59.9%

Question: And the residual activity [24, 46]?
Answer: 82.5%

Question: What about the residual activity [25, 46] of the same compound?
Answer: 100%

Question: And the residual activity [26, 46]?
Answer: 94.7%

Question: And the residual activity [27, 46]?
Answer: 97.2%

Question: What about the residual activity [28, 46] of the same compound?
Answer: 88.4%

Question: What about the residual activity [29, 46] of the same compound?
Answer: 60.4%

Question: What about the residual activity [30, 46] of the same compound?
Answer: 64.1%

Question: And the residual activity [31, 46]?
Answer: 100%

Question: What about the residual activity [32, 46] of the same compound?
Answer: 72.9%

Question: And the residual activity [33, 46]?
Answer: 100%

Question: What about the residual activity [34, 46] of the same compound?
Answer: 82.7%

Question: What about the residual activity [35, 46] of the same compound?
Answer: 90.6%

Question: And the inhibition [36]?
Answer: 25.6%

Question: What about the residual activity [37, 46] of the same compound?
Answer: 85.1%

Question: And the residual activity [38, 46]?
Answer: 95%

Question: What about the residual activity [39, 46] of the same compound?
Answer: 84.9%

Question: What about the residual activity [40, 46] of the same compound?
Answer: 78.6%

Question: And the residual activity [41, 46]?
Answer: 88.4%

Question: And the residual activity [42, 46]?
Answer: 94.3%

Question: And the residual activity [43, 46]?
Answer: 74.9%

Question: And the residual activity [44, 46]?
Answer: 82.4%

Question: And the residual activity [45, 46]?
Answer: 83.6%

Question: What does the source list for `Cc1cc(NC(=O)c2cccc(S(F)(F)(F)(F)F)c2)cc(-n2ccn3nc(-c4cccnc4)cc23)c1` [BAY-309]?
Answer: residual activity [1, 47]: 95.1%; residual activity [2, 47]: 98.2%; residual activity [3, 47]: 100%; residual activity [4, 47]: 100%; residual activity [5, 47]: 100%; inhibition [6]: 32.7%; residual activity [7, 47]: 49.7%; residual activity [8, 47]: 85%; residual activity [9, 47]: 100%; residual activity [10, 47]: 100%; inhibition [11]: 14.6%; residual activity [12, 47]: 100%; residual activity [13, 47]: 100%; residual activity [14, 47]: 100%; residual activity [15, 47]: 100%; residual activity [16, 47]: 93.3%; inhibition [17]: 60%; residual activity [18, 47]: 100%; residual activity [19, 47]: 100%; residual activity [20, 47]: 100%; residual activity [21, 47]: 100%; residual activity [22, 47]: 100%; residual activity [23, 47]: 100%; residual activity [24, 47]: 67.7%; residual activity [25, 47]: 100%; residual activity [26, 47]: 65.9%; residual activity [27, 47]: 94.4%; residual activity [28, 47]: 100%; residual activity [29, 47]: 27.2%; residual activity [30, 47]: 96.9%; residual activity [31, 47]: 95.8%; residual activity [32, 47]: 100%; residual activity [33, 47]: 73.8%; residual activity [34, 47]: 100%; residual activity [35, 47]: 100%; inhibition [36]: 46.1%; residual activity [37, 47]: 91.7%; residual activity [38, 47]: 100%; residual activity [39, 47]: 100%; residual activity [40, 47]: 82%; residual activity [41, 47]: 82.5%; residual activity [42, 47]: 100%; residual activity [43, 47]: 100%; residual activity [44, 47]: 73.8%; residual activity [45, 47]: 100%
